Experimental data published in ChEMBL document CHEMBL1150365, “Improved synthesis of antibacterial 3-substituted 6-anilinouracils” (Bioorg Med Chem Lett, 2008).
pIC50: −log10 of the molar value. In brackets after ≈: the same amount, converted by molar mass. Activity calls are given as the source filed them. The rule behind the calls is not given here.

What was measured:
[1] = Inhibition of Staphylococcus aureus DNA polymerase 3C
Staphylococcus aureus [2] = assay: Antibacterial activity against Staphylococcus aureus 133 by broth microdilution method; type: functional
Streptococcus pneumoniae = assay: Antibacterial activity against Streptococcus pneumoniae 1707/4 in presence of bovine serum by broth microdilution method; type: functional
Enterococcus faecalis = assay: Antibacterial activity against Enterococcus faecalis ICB 27159 in presence of bovine serum by broth microdilution method; type: functional
Staphylococcus aureus [3] = assay: Antibacterial activity in Staphylococcus aureus injected CFU mouse at 100 mg/kg, ip after 30 mins; type: functional, organism-based; parameters: dose 100 mg/kg
[4] = Aqueous solubility of the compound; type: physicochemical; conditions: water

With `COC(=O)c1ccc(Cn2c(=O)cc(Nc3ccc4c(c3)CCC4)[nH]c2=O)o1` as the compound, how does the pIC50 [1] read?
The pIC50 was 5.70.

And the MIC (Staphylococcus aureus [2])?
Its MIC is 32 µg/mL (≈ 83.9 µM).

And the MIC (Streptococcus pneumoniae)?
Its MIC is 16 µg/mL.

What about the MIC (Enterococcus faecalis) of the same compound?
Its MIC is 32 µg/mL.

With `CCc1cc(Nc2cc(=O)n(CCCO)c(=O)[nH]2)ccc1C` as the compound, how does the pIC50 [1] read?
The pIC50 was 6.52.

What about the MIC (Staphylococcus aureus [2]) of the same compound?
The MIC was 8 µg/mL (≈ 26.4 µM).

And the MIC (Streptococcus pneumoniae)?
The MIC was 8 µg/mL.

What about the MIC (Enterococcus faecalis) of the same compound?
Its MIC is 16 µg/mL.

Which results are given for `CCOC(=O)Cn1c(=O)cc(Nc2ccc3c(c2)CCC3)[nH]c1=O`?
pIC50 [1]: 5.82; MIC (Staphylococcus aureus [2]): 16 µg/mL (≈ 48.6 µM); MIC (Streptococcus pneumoniae): 16 µg/mL; MIC (Enterococcus faecalis): 64 µg/mL

With `CN(C)C(=O)c1cc(Cn2c(=O)cc(Nc3ccc4c(c3)CCC4)[nH]c2=O)on1` as the compound, how does the pIC50 [1] read?
Its pIC50 is 5.92.

And the MIC (Staphylococcus aureus [2])?
The MIC was 32 µg/mL (≈ 80.9 µM).

What about the MIC (Streptococcus pneumoniae) of the same compound?
The MIC was 16 µg/mL.

What about the MIC (Enterococcus faecalis) of the same compound?
The MIC was 32 µg/mL.

For `O=c1cc(Nc2ccc3c(c2)CCC3)[nH]c(=O)n1CC1CC1`, which Activity (Staphylococcus aureus [3]) is on record?
Its Activity is “inactive”.

What about the pIC50 [1] of the same compound?
Its pIC50 is 6.52.

And the MIC (Staphylococcus aureus [2])?
The MIC was 4 µg/mL (≈ 13.5 µM).

And the MIC (Streptococcus pneumoniae)?
The MIC was 4 µg/mL.

And the MIC (Enterococcus faecalis)?
The MIC was 16 µg/mL.

And the solubility [4]?
Its solubility is 3.3 µg/mL (≈ 11.1 µM).

Which results are given for `O=C(Cn1c(=O)cc(Nc2ccc3c(c2)CCC3)[nH]c1=O)c1ccc(Br)cc1`?
pIC50 [1]: < 4.89; MIC (Staphylococcus aureus [2]): > 256 µg/mL; MIC (Streptococcus pneumoniae): > 256 µg/mL; MIC (Enterococcus faecalis): > 256 µg/mL
